Entries after “also recorded” stand apart in the source; their conditions may differ.
Tests used:
[1] = test system: Human umbilical vein endothelial cells; test: Endothelial cell proliferation assay; type: cell-based; conditions: Cpd. 8 1-10 mg/ml; for endothelial cell proliferation (in words): 3 days, two donors, Cpd. 5, 7, 12 0.01-10 mg/ml; for toxicity to endothelial cells: Cpd. 12 0.01-10 mg/ml
Description: Human umbilical vein endothelial cells between passage 1 and 3 were used. Cells were grown in gelatin coated flasks in medium 199 with Earle's Salts supplemented with 20% foetal calf serum, 25 mg/ml endothelial cell growth supplement and 25 mg/ml heparin. Cells from two different donors were used.
5×10^3 cells in […] growth medium were plated into gelatin coated microtitre wells. The test compounds were added at plating. The cells were then incubated for 3 days and cell number determined by a calorimetric assay (CellTiter96 Aqueous assay, Promega). Results were compared to a standard curve performed in each experiment. Two different endothelial cell isolates were used and the assays were performed on two different days. The effect of isoflavone derivatives on the proliferation of human umbilical vein endothelial cells are shown for donor No. 1 (FIG. 15) and donor No. 2 (FIG. 16).

[2] = test system: C57/B16 mice; test: Mouse model of neointimal hyperplasia after mechanical endothelial damage; type: in vivo; conditions: for effect on neointimal proliferation (in words) / neointimal proliferation, intimal thickness: 4 weeks after surgery; for neointimal proliferation, intimal thickness: in chow, surgery only 50±5%, no surgery 5±1%
From the text: The key feature of atherosclerosis in humans is vascular smooth muscle cell (VSMC) migration from the arterial media to the intima, followed by proliferation within the intima. The animal model of atherosclerosis used in this experiment aimed to induce VSMC migration and neointimal proliferation by mechanical damage to the endothelium. A probe was introduced into the femoral artery of the mouse and was passed through the iliac artery to the bifurcation of the aorta. The probe was then withdrawn and the femoral artery ligated to prevent haemorrhage. Colateral circulation prevents any limb-associated ischaemia. Neointimal proliferation occurred in the iliac artery over the following 4 weeks.
Proliferation was enhanced by feeding the mouse cholesterol during this time (commencing one week before surgery). At four weeks, the mice were sacrificed and the iliac vessels on both sides are harvested (the non-operated vessel was used as a control). Neointimal proliferation is expressed as the ratio of the intimal area to the intimal plus media area.
Atherosclerosis was induced in the femoral artery of each mouse by mechanically removing the endothelium using a probe. The ability of isoflavone compounds to inhibit the atherosclerotic response was assessed by comparing treatment and placebo groups. C57/B16 mice (8-10 week old male) were anaesthetized, and the right femoral artery was de-endothilialized using a dissection microscope. These mice were also fed with a 2% cholesterol diet to enhance the progression of the disease. The mice were sacrificed at week 4. Their treated (right) and control (left) arteries were both collected and fixed in formalin for histopathological evaluation.
The mice were fed a diet of 2% cholesterol mixed with normal mouse chow for a week prior to surgery. The treatment groups were fed the chow with Cpd. 5 or Cpd. 12 or Cpds. 5+12. Mice were anaesthetised with Avertin, and angioplasty of the femoral artery was performed. After surgery, the mice were moved onto a warm mat in a quiet, darkened area and their recovery closely monitored. They were housed in sterile cages with sterile bedding to avoid infection. The mice continued a diet of cholesterol mixed with normal mouse chow for the next 4 weeks. The mice were euthanased at 4 weeks postsurgery. Their femoral arteries were collected for pathological examination. Sections were evaluated by image analysis to determine the area of the various sections of the arterial wall, and the numbers of cells in each area. The primary parameter being evaluated was the increase in the intimal area, expressed as the ratio of the area of the intima versus the area of the intima plus media. The interval sections (every 50 μm, or every ten sections) were mounted and stained with H & E. The cross-sectional areas of the endothelium, intima and media were evaluated, using image analysis.

[3] = test system: IMA-derived human VSMC primed with PDGF BB; test: PDGF BB-induced VSMC DNA synthesis, proliferation and cell number; type: cell-based; conditions: for proliferation of IMA cells primed with PDGF BB (in words): Cpd. 7 at concentrations as low as 0.1 nM; for effect of ER antagonist ICI 182780 on the inhibitory effect: ICI 182780 100 nmol/L
Description: Cell proliferation was induced by a variety of growth factors such as serum and platelet derived growth factor (PDGF).
Media was changed to LG serum-free DMEM and cells were treated with [^3H]-thymidine at 1 μCi/well for 3 hours. Cells were washed twice with ice cold Dulbecco's PBS. Next, ice cold 0.2M HClO4 (1 ml/well) was added and cells were incubated on ice for 30 min. Cells were then washed three times with 0.5 ml/well of ice cold 0.2M HClO4. Media (0.5 ml/well of 0.2 M NaOH) was replaced and cells were incubate at 37° C. After 1 hour, cells were treated with acetic acid (6%, 0.2 ml/well), transferred to scintillation vials with 3 ml scintillation liquid (Instagel) and counted for 2 min per vial.
The effect of Cpd. 5 and Cpd. 7 was tested further in IMA-derived human VSMC primed with PDGF BB instead of serum. […] (FIG. 12). This effect was equivalent to that observed with estradiol. Cpd.
In further experiments Cpd. […] 7 at 100 nmol/L), indicating ER-mediation. […] 7 (1-100 nmol/L).

[4] = test system: Sp-1; test: Early growth response gene protein in VSMC, Western blotting; type: cell-based; conditions: human VSMC
Description: (§1) To further examine the signalling pathway mediating the effect of this phytoestrogen in VSMC, the effect of Cpd. 7 on mitogen-activated protein (MAP) kinases (Erk, JUNK, p38) was determined by immunoprecipitation analysis and on early growth response genes (Egr-1, Sp-1) by Western blotting. […] 7 in a dose-dependent manner, while JUNK and p38 activity were not affected by either PDGF BB or Cpd. 7, though the cells strongly expressed both proteins as well as Erk. Egr-1 or Sp-1 proteins were not altered by either PDGF-BB or Cpd. 7.

[5] = test system: Egr-1; test: as above; type: cell-based; conditions: human VSMC
Description: as §1

[6] = test system: JUNK; test: MAP kinase activity in VSMC, immunoprecipitation analysis; type: cell-based; conditions: human VSMC
Description: as §1

[7] = test system: p38; test: as above; type: cell-based; conditions: human VSMC
Description: as §1

[8] = test system: Erk; test: PDGF BB-induced MAP kinase activation in VSMC, immunoprecipitation analysis; type: cell-based; conditions: human VSMC
Description: as §1

[9] = test system: LDL receptor; test: LDL receptor expression on HepG2 cells, [125I]-LDL specific binding; type: cell-based, human; conditions: 10 μM; for concentration dependence of LDL receptor expression: 50 nM, 500 nM; for LDL receptor expression, Experiment 3 / LDL receptor expression, Experiment 2 / LDL receptor expression, Experiment 1: 48 hours; for LDL receptor expression, Experiment 3: control 130 ± 18; for LDL receptor expression, Experiment 2: control 261 ± 57; for LDL receptor expression, Experiment 1: control 283 ± 32
[10] = test system: E-selectin; test: Inhibition of E-selectin expression in activated HUVEC; type: cell-based, human; conditions: pre-incubated 2 or 18 hours prior to TNF stimulation; Cpd. 8 especially at 10 μg/ml, Cpd. 12 especially at 1 and 10 μg/ml
Description: The ability of isoflavone compounds and derivatives to inhibit the expression of E-selectin was measured by the protocol set out in Litwin et al. (1997) and is incorporated herein by reference.
FIG. 18 provides comparative data on the ability of a number of isoflavone compounds to inhibit the expression of E-selectin conducted in accordance with the method of Litwin et al. The interaction of isoflavone metabolite Cpds. 8 and 12 on human umbilical vein endothelial cells, activated by […], was measured against the concentration of the compound. The cells were pre-incubated for either 2 or 18 hours prior to TNF stimulation. In comparison with a DMSO control, isoflavone Cpd. […] Isoflavone Cpd.

SMILES: O=C1c2ccc(O)cc2OCC1c1ccc(O)cc1 (stereo not shown) [Cpd. 5]
- endothelial cell proliferation (in words) [1]: no apparent effect on endothelial cell proliferation
- reduction of neointimal area ([2]; 4 weeks): approximately 50%
- effect on neointimal proliferation (in words) [2]: significantly reduced
- neointimal proliferation, intimal thickness [2]: 30±6%
- proliferation of IMA cells primed with PDGF BB (in words) [3]: no observed effect on cellular proliferation

SMILES: Oc1ccc(C2COc3cc(O)ccc3C2O)cc1 (stereo not shown) [Cpd. 7]
- Sp-1 protein [4]: not altered
- Egr-1 protein [5]: not altered
- endothelial cell proliferation (in words) [1]: no appreciable antiproliferative action
- JUNK activity [6]: not affected
- p38 activity [7]: not affected
- PDGF BB-induced Erk activation [8]: significantly inhibited by Cpd. 7 in a dose-dependent manner
- PDGF BB-induced increases in cell number ([3]; 1-100 nmol/L): partly but significantly reduced
- proliferation of IMA cells primed with PDGF BB (in words) [3]: inhibited proliferation
- inhibition at 0.001 µM ([3]; Homo sapiens, VSMC, 3 h, 1 nmol/L, read-out: inhibition of PDGF BB-induced DNA synthesis ([3H]-thymidine incorporation)): 10%
- inhibition at 0.01 µM ([3]; Homo sapiens, VSMC, 3 h, 10 nmol/L, read-out: inhibition of PDGF BB-induced DNA synthesis ([3H]-thymidine incorporation)): 17%
- inhibition at 0.1 µM ([3]; Homo sapiens, VSMC, 3 h, 100 nmol/L, read-out: inhibition of PDGF BB-induced DNA synthesis ([3H]-thymidine incorporation)): 17%
- effect of ER antagonist ICI 182780 on the inhibitory effect ([3]; compound at 100 nmol/L): partly abolished
- effect of ER antagonist ICI 182780 on the inhibitory effect ([3]; compound at 1-10 nmol/L): completely abolished
- concentration dependence of LDL receptor expression [9]: increased concentration-dependently
- LDL receptor expression, Experiment 3 [9]: 194 ± 46 fmol LDL receptors per mg cell protein
- LDL receptor expression, Experiment 2 [9]: 306 ± 70 fmol LDL receptors per mg cell protein
- LDL receptor expression, Experiment 1 [9]: 332 ± 46 fmol LDL receptors per mg cell protein

SMILES: Oc1ccc(C2COc3cc(O)ccc3C2O)cc1 (stereo not shown) [Cpd. 8]
- inhibition of E-selectin expression (in words) [10]: very good inhibition of E-selectin expression
- endothelial cell proliferation (in words) [1]: inhibited cellular proliferation
- toxicity to endothelial cells [1]: did not cause toxicity
- concentration dependence of LDL receptor expression [9]: no clear concentration-dependent effect
- LDL receptor expression, Experiment 3 [9]: 143 ± 34 fmol LDL receptors per mg cell protein
- LDL receptor expression, Experiment 2 [9]: 273 ± 57 fmol LDL receptors per mg cell protein
- LDL receptor expression, Experiment 1 [9]: 315 ± 24 fmol LDL receptors per mg cell protein

SMILES: Oc1ccc(C2=Cc3ccc(O)cc3OC2)cc1 [Cpd. 12]
- inhibition of E-selectin expression (in words) [10]: excellent inhibition of E-selectin expression
- endothelial cell proliferation (in words) [1]: inhibited cellular proliferation
- toxicity to endothelial cells [1]: did not cause toxicity
- effect on neointimal proliferation (in words) [2]: no detectable effect; also recorded: no appreciable effect on neointimal proliferation
- neointimal proliferation, intimal thickness [2]: 50±29%
- LDL receptor expression, Experiment 3 [9]: 174 ± 35 fmol LDL receptors per mg cell protein
- LDL receptor expression, Experiment 2 [9]: 161 ± 35 fmol LDL receptors per mg cell protein
- LDL receptor expression, Experiment 1 [9]: 290 ± 42 fmol LDL receptors per mg cell protein
